In article PMC8464070 (Nucleic Acids Research, 2021):
Where “and” joins values, the source holds several entries; their conditions need not be identical. Equal entries are not always repeated.

Experiments:
RslTpt1 [1] = molecular target: T1, RslTpt1 (Runella slithyformis, UniProt A0A7U3ZK32); assay: Isothermal titration calorimetry; assay type: binding
T1 sequence (A0A7U3ZK32 5-178): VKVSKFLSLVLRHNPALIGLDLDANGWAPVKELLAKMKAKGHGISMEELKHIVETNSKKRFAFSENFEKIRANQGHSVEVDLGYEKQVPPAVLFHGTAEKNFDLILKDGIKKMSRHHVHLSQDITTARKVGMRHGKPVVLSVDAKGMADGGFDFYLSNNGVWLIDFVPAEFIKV

RslTpt1 [2] = molecular target: T1, RslTpt1; assay: NMR ligand-induced chemical shift perturbations on RslTpt1; assay type: binding; conditions: for backbone chemical shift perturbations induced on RslTpt1 (result in words): 15N,1H HSQC, 10 molar equivalents of ligand

| fold less affinity than NAD^+ (RslTpt1 [1]; ratio of ITC KD values, NADP^+ versus NAD^+) | Kd (RslTpt1 [1]; read-out: apparent KD, ITC, 17°C, approximate value) | average backbone amide chemical shift perturbation Δδ, N-lobe (RslTpt1 [2]; 15N,1H resonances, 4 molar equivalents of NADP^+) | backbone chemical shift perturbations induced on RslTpt1 (result in words) (RslTpt1 [2]) | SMILES |
| --- | --- | --- | --- | --- |
| ~30 fold | ~1000 µM | 0.02 ± 0.03 ppm and 0.02 ppm | – | NC(=O)c1ccc[n+]([C@@H]2O[C@H](COP(=O)([O-])OP(=O)(O)OC[C@H]3O[C@@H](n4cnc5c(N)ncnc54)[C@H](OP(=O)(O)O)[C@@H]3O)[C@@H](O)[C@H]2O)c1 [NADP^+] |
| – | – | – | no significant CSPs | NC(=O)c1ccc[n+]([C@@H]2O[C@H](COP(=O)([O-])O)[C@@H](O)[C@H]2O)c1 [NMN, β-nicotinamide mononucleotide] |
| – | – | – | no significant CSPs | NC(=O)c1cccnc1 [Nicotinamide, nicotinamide] |
